From patent US10315992B2, “Tetracyline compounds” (Tetraphase Pharmaceuticals, Inc., priority 2012, dated 2019)
In brackets after ≈: the same amount, converted by molar mass. Like-named read-outs stand apart in the source and are kept apart here.

Columns and labels:
PA 884 35151 = assay: MIC assay, PA884; settings: Pseudomonas aeruginosa, read-out: MIC PA 884 351 51
Protocol: (§3) MICs were determined according to the Clinical and Laboratory Standards Institute (CLSI) guidances (e.g., CLSI. Performance standards for antimicrobial susceptibility testing; nineteenth information supplement. CLSI document M100-S19, CLSI, 940 West Valley Road, Suite 1400, Wayne, Pa. 19087-1898, USA, 2009). Briefly, frozen bacterial strains were thawed and subcultured onto Mueller Hinton Broth (MHB) or other appropriate media (Streptococcus requires blood and Haemophilus requires hemin and NAD). Following incubation overnight, the strains were subcultured onto Mueller Hinton Agar and again incubated overnight. […] Isolated colonies were selected to prepare a starting inoculum equivalent to a 0.5 McFarland standard. […] Test compounds were prepared by dilution in sterile water to a final concentration of 5.128 mg/mL. Antibiotics (stored frozen, thawed and used within 3 hours of thawing) and compounds were further diluted to the desired working concentrations.
(§4) The assays were run as follows. Fifty μL of MHB was added to wells 2-12 of a 96-well plate. One hundred μL of appropriately diluted antibiotics was added to well 1. Fifty μL of antibiotics was removed from well 1 and added to well 2 and the contents of well 2 mixed by pipetting up and down five times. Fifty μL of the mixture in well 2 was removed and added to well 3 and mixed as above. Serial dilutions were continued in the same manner through well 12. Fifty μL was removed from well 12 so that all contained 50 μL. Fifty μL of the working inoculum was then added to all test wells. A growth control well was prepared by adding 50 μL of working inoculum and 50 μL of MHB to an empty well. The plates were then incubated at 37° C. overnight, removed from the incubator and each well was read on a plate reading mirror. The lowest concentration (MIC) of test compound that inhibited the growth of the bacteria was recorded.

[1] = system: Pseudomonas aeruginosa PA111 (ATCC 27853); assay: MIC assay, PA111; format: cell-based; settings: ATCC27853, read-out: MIC PA 111 27853
[2] = system: Enterococcus faecalis EF327 (wound isolate, tet(M)); assay: MIC assay, EF327; format: cell-based
[3] = system: Pseudomonas aeruginosa PA693 (2009 corneal scraping isolate); assay: MIC assay, PA693; format: cell-based
[4] = system: Enterobacter cloacae EC603 (urine isolate); assay: MIC assay, EC603; format: cell-based
[5] = system: Pseudomonas aeruginosa PA669 (2009 tracheal aspirate isolate); assay: MIC assay, PA669; format: cell-based
EC 880 ipxC = assay: MIC assay, EC880; format: cell-based
From the text: (§1) Minimum Inhibitory Concentration (MIC) Assay
(§2) The assays were run as follows.

EC 882 imp = assay: MIC assay, EC882; format: cell-based; settings: read-out: MIC EC 882 imp
From the text: as §1, §2

[6] = system: Haemophilus influenzae HI262 (tetracycline-resistant, ampicillin-resistant); assay: MIC assay, HI262; format: cell-based; settings: read-out: MIC HI 262 33929
[7] = system: Enterobacter cloacae EC108 (ATCC 13047); assay: MIC assay, EC108; format: cell-based; settings: ATCC13047, read-out: MIC ECI 108 13047
[8] = system: Staphylococcus aureus SA100 (ATCC 13709, MSSA, Smith strain); assay: MIC assay, SA100; format: cell-based; settings: read-out: MIC SA 100 13709
KP 194 7E+05 = assay: MIC assay, KP194; settings: Table 5
Protocol: as §3, §4

[9] = system: Klebsiella pneumoniae KP457 (2009 ESBL+, CTX-M, OXA); settings: for MIC KP 457 CTX- M-15: K. pneumoniae ESBL+
[10] = system: Escherichia coli EC878 (MG1655 tolC::kan); assay: microbe, parasite or virus in culture; format: cell-based
[11] = system: Staphylococcus aureus SA161 (HA-MRSA, tet(M)); assay: MIC assay, SA161; format: cell-based; settings: Staphylococcus aureus, MRSA
[12] = system: Acinetobacter baumannii AB110 (ATCC 19606); assay: MIC assay, AB110; format: cell-based; settings: ATCC19606, read-out: MIC AB 110 19606
[13] = system: Enterococcus faecalis EF159 (tet(M)); assay: MIC assay, EF159; format: cell-based
[14] = system: Escherichia coli EC155 (tet(A)); assay: MIC assay, EC155; format: cell-based; settings: Escherichia coli, read-out: MIC EC 155 tetA
[15] = system: Enterococcus faecalis EF103 (ATCC 29212); assay: MIC assay, EF103; format: cell-based; settings: ATCC29212, read-out: MIC EF 103 29212
[16] = system: Enterococcus faecium EF404 (blood isolate, tet(M)); assay: MIC assay, EF404; format: cell-based
[17] = system: Pseudomonas aeruginosa PA555 (ATCC BAA-47, PAO1); assay: MIC assay, PA555; format: cell-based
[18] = system: Moraxella catarrhalis MC205 (ATCC 8176); assay: MIC assay, MC205; format: cell-based; settings: ATCC8176, read-out: MIC MC 205 8176
[19] = system: Acinetobacter baumannii AB250 (cystic fibrosis isolate, MDR); assay: MIC assay, AB250; format: cell-based
[20] = system: Streptococcus pneumoniae SP106 (ATCC 49619); assay: MIC assay, SP106; format: cell-based; settings: ATCC49619, read-out: MIC SP 106 49619
[21] = system: Proteus mirabilis PM385 (urine ESBL+ isolate); assay: MIC assay, PM385; format: cell-based
[22] = system: Pseudomonas aeruginosa PA673 (2009 urine isolate); assay: MIC assay, PA673; format: cell-based

SMILES: CN(C)c1cc(NC(=O)CNC(C)(C)C)c(O)c2c1C[C@H]1C[C@H]3[C@H](N(C)C)C(O)=C(C(N)=O)C(=O)[C@@]3(O)C(O)=C1C2=O [Tigecycline, tigecycline]
- MIC (PA 884 35151): 0.063 µg/mL (≈ 0.108 µM)
- MIC [1]: 8 µg/mL (≈ 13.7 µM)
- MIC ([2]; read-out: MIC EF 327 tet M): 0.063 µg/mL (≈ 0.108 µM)
- MIC ([2]; read-out: MIC EF 327 tetM): 0.06 µg/mL (≈ 0.102 µM)
- MIC [3]: 32 µg/mL (≈ 54.6 µM)
- MIC ([3]; read-out: MIC PA 693): 33 µg/mL (≈ 56.3 µM)
- MIC [4]: 2 µg/mL (≈ 3.41 µM)
- MIC ([4]; read-out: MIC EC 603 tetA): 2 µg/mL (≈ 3.41 µM)
- MIC [5]: 32 µg/mL (≈ 54.6 µM)
- MIC ([5]; read-out: MIC PA 669): 32 µg/mL (≈ 54.6 µM)
- MIC (EC 880 ipxC; Table 6, read-out: MIC EC 880 ipx C): 0.015 µg/mL (≈ 0.0256 µM)
- MIC (EC 880 ipxC; Table 7, read-out: MIC EC 880 ipxC): 0.02 µg/mL (≈ 0.0341 µM)
- MIC (EC 882 imp; Table 6): 0.015 µg/mL (≈ 0.0256 µM)
- MIC (EC 882 imp; Table 7): 0.02 µg/mL (≈ 0.0341 µM)
- MIC [6]: 1 µg/mL (≈ 1.71 µM)
- MIC [7]: 0.25 µg/mL (≈ 0.427 µM)
- MIC [8]: 0.063 µg/mL (≈ 0.108 µM)
- MIC KP 194 7E+05 (KP 194 7E+05): 8 μg/mL
- MIC KP 457 CTX- M-15 ([9]; Table 6): 1 µg/mL (≈ 1.71 µM)
- MIC KP 457 CTX- M-15 ([9]; Table 7): 1 µg/mL (≈ 1.71 µM)
- MIC KP 457 CTX-M-15 ([9]; control compounds): 1 µg/mL (≈ 1.71 µM)
- MIC KP 457 ([9]; control compounds, numeric): 1 µg/mL (≈ 1.71 µM)
- MIC ([10]; MG1655, read-out: MIC EC 878 toIC, E. coli MG1655 tolC::kan, Table 6): 0.031 µg/mL (≈ 0.0529 µM)
- MIC ([10]; MG1655, read-out: MIC EC 878 toIC, E. coli MG1655 tolC::kan, Table 7): 0.03 µg/mL (≈ 0.0512 µM)
- MIC ([10]; MG1655, read-out: MIC EC 878 toIC, control compounds): 0.03 µg/mL (≈ 0.0512 µM)
- MIC ([10]; MG1655, read-out: MIC EC 878 tolC, control compounds, numeric): 0.03 µg/mL (≈ 0.0512 µM)
- MIC ([11]; read-out: MIC SA 161 MRSAtetM): 0.125 µg/mL (≈ 0.213 µM)
- MIC ([11]; read-out: MIC SA 161 tet M): 0.125 µg/mL (≈ 0.213 µM)
- MIC ([11]; read-out: MIC SA 161 tetM): 0.13 µg/mL (≈ 0.222 µM)
- MIC [12]: 0.25 µg/mL (≈ 0.427 µM)
- MIC ([13]; read-out: MIC EF 159 tetM, E. faecalis tet(M), Table 4): 0.063 µg/mL (≈ 0.108 µM)
- MIC ([13]; read-out: MIC EF 159 tetM, E. faecalis tet(M), Table 5): 0.06 µg/mL (≈ 0.102 µM)
- MIC [14]: 0.5 µg/mL (≈ 0.854 µM)
- MIC [15]: 0.031 µg/mL (≈ 0.0529 µM)
- MIC ([16]; read-out: MIC EF 404 tet M): 0.031 µg/mL (≈ 0.0529 µM)
- MIC ([16]; read-out: MIC EF 404 tetM): 0.03 µg/mL (≈ 0.0512 µM)
- MIC [17]: 16 µg/mL (≈ 27.3 µM)
- MIC ([17]; read-out: MIC PA5 55 BAA- 47): 16 µg/mL (≈ 27.3 µM)
- MIC ([17]; read-out: MIC PA 555): 16 µg/mL (≈ 27.3 µM)
- MIC ([17]; read-out: MIC PA 555 BAA- 47): 16 µg/mL (≈ 27.3 µM)
- MIC ([17]; read-out: MIC PA 555 BAA-47): 16 µg/mL (≈ 27.3 µM)
- MIC [18]: 0.02 µg/mL (≈ 0.0341 µM)
- MIC [19]: 8 µg/mL (≈ 13.7 µM)
- MIC ([19]; read-out: MIC AB 250): 8 µg/mL (≈ 13.7 µM)
- MIC [20]: 0.016 µg/mL (≈ 0.0273 µM)
- MIC ([21]; read-out: MIC PM 385): 4 µg/mL (≈ 6.83 µM)
- MIC ([21]; read-out: MIC PM 385 CTX-M15): 4 µg/mL (≈ 6.83 µM)
- MIC [22]: 16 µg/mL (≈ 27.3 µM)
- MIC ([22]; read-out: MIC PA 673): 32 µg/mL (≈ 54.6 µM)
